Assays:
in vivo [1] = settings: ICR, mouse, plasma, po, 30 mg/kg
Description: Half life in ICR mouse plasma at 30 mg/kg, po by LC/MS/MS analysis

[2] = biological target: Phosphatidylinositol 4,5-bisphosphate 3-kinase catalytic subunit beta isoform (Homo sapiens, UniProt P42338); assay: Inhibition of PI3Kbeta (unknown origin) using PIP2 as substrate by ADP-Glo assay
Cytochrome P450 2C9 = Cytochrome P450 2C9 (Homo sapiens, UniProt P11712)
Description: Inhibition of CYP2C9 in human liver microsomes assessed as reduction in 4-Hydroxydiclofenac formation using diclofenac as substrate after 10 to 20 mins in presence of NADPH by LC-MS/MS analysis

[3] = biological target: Serine/threonine-protein kinase mTOR (Homo sapiens, UniProt P42345); assay: Inhibition of mTOR (unknown origin) using ULight-4E-BP1 peptide as substrate after 30 mins by Lance Ultra assay
in vivo [4] = settings: ICR, mouse, po
Description: Toxicity in po dosed ICR mouse administered as single dose via oral gavage measured after 14 days

[5] = mouse, in vivo, po, 30 mg/kg
in vivo [6] = settings: ICR, mouse, plasma, iv, 3 mg/kg
A549 = assay: cells; type: functional, cell-based; settings: Homo sapiens, A549, 96 h
Description: Cytotoxicity against human A549 cells after 96 hrs by MTT assay

Cytochrome P450 1A2 = biological target: T1, Cytochrome P450 1A2 (Homo sapiens, UniProt P05177)
T1 sequence (P05177 whole entry): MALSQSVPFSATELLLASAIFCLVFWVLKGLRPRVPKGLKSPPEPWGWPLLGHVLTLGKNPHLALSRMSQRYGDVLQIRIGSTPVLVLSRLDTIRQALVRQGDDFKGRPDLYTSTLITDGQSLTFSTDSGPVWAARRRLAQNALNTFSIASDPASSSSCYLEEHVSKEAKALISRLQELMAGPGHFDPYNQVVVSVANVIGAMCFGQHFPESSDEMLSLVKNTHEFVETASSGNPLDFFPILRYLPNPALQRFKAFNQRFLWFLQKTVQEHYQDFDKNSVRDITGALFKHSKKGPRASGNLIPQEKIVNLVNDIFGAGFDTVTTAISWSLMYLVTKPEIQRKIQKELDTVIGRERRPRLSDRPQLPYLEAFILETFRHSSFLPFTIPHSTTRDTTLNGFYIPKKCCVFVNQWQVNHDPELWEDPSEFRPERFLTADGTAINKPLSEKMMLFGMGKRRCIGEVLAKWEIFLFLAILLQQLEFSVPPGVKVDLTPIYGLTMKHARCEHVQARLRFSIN
Description: Inhibition of CYP1A2 in human liver microsomes assessed as reduction in acetaminophen formation using phenacetin as substrate after 10 to 20 mins in presence of NADPH by LC-MS/MS analysis

Cytochrome P450 3A4 = Cytochrome P450 3A4 (Homo sapiens, UniProt P08684)
Chain of Cytochrome P450 3A4 (P08684 whole entry): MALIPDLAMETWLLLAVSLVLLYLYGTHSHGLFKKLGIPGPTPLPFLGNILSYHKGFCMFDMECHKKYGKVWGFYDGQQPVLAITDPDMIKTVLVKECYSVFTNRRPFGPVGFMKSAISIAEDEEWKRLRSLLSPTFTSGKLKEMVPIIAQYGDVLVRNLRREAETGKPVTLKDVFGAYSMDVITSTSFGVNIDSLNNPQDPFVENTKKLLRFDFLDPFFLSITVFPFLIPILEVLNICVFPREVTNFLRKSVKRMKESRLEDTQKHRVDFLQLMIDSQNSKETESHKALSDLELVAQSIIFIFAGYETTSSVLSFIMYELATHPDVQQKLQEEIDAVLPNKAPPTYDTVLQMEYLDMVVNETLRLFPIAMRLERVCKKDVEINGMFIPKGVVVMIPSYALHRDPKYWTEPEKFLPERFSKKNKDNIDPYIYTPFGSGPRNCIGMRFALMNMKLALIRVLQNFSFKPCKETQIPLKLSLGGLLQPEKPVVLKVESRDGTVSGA
Description: Inhibition of CYP3A4 in human liver microsomes assessed as reduction in 1-Hydroxymidazolam formation using midazolam as substrate after 10 to 20 mins in presence of NADPH by LC-MS/MS analysis

in vivo [7] = settings: ICR, mouse, plasma, po, 30 mg/kg; remark: listed apart in the source
Cytochrome P450 2C19 = Cytochrome P450 2C19 (Homo sapiens, UniProt P33261)
Description: Inhibition of CYP2C19 in human liver microsomes assessed as reduction in 4-Hydroxymephenytoinn formation using mephenytoin as substrate after 10 to 20 mins in presence of NADPH by LC-MS/MS analysis

U-87 MG = assay: cells; type: functional, cell-based, U-87MG ATCC; settings: Homo sapiens, 96 h
Description: Cytotoxicity against human U87MG cells after 96 hrs by MTT assay

SH-SY5Y = assay: cells; type: functional, cell-based; settings: Homo sapiens, 96 h
Description: Cytotoxicity against human SH-SY5Y cells after 96 hrs by MTT assay

in vivo [8] = settings: ICR, mouse, plasma, iv, 3 mg/kg; remark: listed apart in the source
Description: Volume of distribution at steady state in ICR mouse plasma at 3 mg/kg, iv by LC/MS/MS analysis

in vivo [9] = settings: ICR, mouse, plasma, iv, 3 mg/kg; remark: listed apart in the source
Description: Clearance in ICR mouse plasma at 3 mg/kg, iv by LC/MS/MS analysis

in vivo [10] = settings: ICR, mouse, plasma, iv, 3 mg/kg; remark: listed apart in the source
Description: Half life in ICR mouse plasma at 3 mg/kg, iv by LC/MS/MS analysis

in vivo [11] = settings: ICR, mouse, plasma, po, 30 mg/kg; remark: listed apart in the source
DU-145 = assay: cells; type: functional, cell-based; settings: Homo sapiens, DU-145, 96 h
Description: Cytotoxicity against human DU145 cells after 96 hrs by MTT assay

in vivo [12] = settings: ICR, mouse, plasma, iv, 3 mg/kg; remark: listed apart in the source
in vivo [13] = settings: ICR, mouse, plasma, po, 30 mg/kg; remark: listed apart in the source
Cytochrome P450 2E1 = Cytochrome P450 2E1 (Homo sapiens, UniProt P05181)
Chain of Cytochrome P450 2E1 (P05181 whole entry): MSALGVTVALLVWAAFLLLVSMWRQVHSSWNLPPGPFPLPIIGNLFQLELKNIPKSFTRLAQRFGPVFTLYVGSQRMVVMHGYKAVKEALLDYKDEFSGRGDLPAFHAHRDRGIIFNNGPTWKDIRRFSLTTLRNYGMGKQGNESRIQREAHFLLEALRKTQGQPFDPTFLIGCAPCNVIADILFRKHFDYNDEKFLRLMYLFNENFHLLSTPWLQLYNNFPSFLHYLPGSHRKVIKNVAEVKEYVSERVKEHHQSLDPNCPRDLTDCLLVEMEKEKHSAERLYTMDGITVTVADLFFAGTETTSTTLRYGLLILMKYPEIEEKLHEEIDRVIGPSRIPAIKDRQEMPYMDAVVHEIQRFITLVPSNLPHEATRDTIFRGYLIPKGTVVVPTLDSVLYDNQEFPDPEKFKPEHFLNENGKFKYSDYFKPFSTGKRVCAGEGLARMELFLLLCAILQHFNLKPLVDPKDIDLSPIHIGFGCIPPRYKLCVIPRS
Description: Inhibition of CYP2E1 in human liver microsomes assessed as reduction in 6-Hydroxychlorzoxazone formation using chlorzoxazone as substrate after 10 to 20 mins in presence of NADPH by LC-MS/MS analysis

in vivo [14] = settings: ICR, mouse, plasma, po, 30 mg/kg; remark: listed apart in the source
T98G = assay: cells; type: functional, cell-based; settings: Homo sapiens, 96 h
Description: Cytotoxicity against human T98G cells after 96 hrs by MTT assay

in vivo [15] = settings: ICR, mouse, plasma, iv, 3 mg/kg; remark: listed apart in the source
MDA-MB-231 = assay: cells; type: functional, cell-based; settings: Homo sapiens, MDA-MB-231, 96 h
Description: Cytotoxicity against human MDA-MB-231 cells after 96 hrs by MTT assay

[16] = biological target: RAC-alpha serine/threonine-protein kinase (Homo sapiens, UniProt P31749); assay: Inhibition of AKT1 (unknown origin) using FAM-labeled peptide as substrate by mobility shift assay
Chain of RAC-alpha serine/threonine-protein kinase (P31749 whole entry): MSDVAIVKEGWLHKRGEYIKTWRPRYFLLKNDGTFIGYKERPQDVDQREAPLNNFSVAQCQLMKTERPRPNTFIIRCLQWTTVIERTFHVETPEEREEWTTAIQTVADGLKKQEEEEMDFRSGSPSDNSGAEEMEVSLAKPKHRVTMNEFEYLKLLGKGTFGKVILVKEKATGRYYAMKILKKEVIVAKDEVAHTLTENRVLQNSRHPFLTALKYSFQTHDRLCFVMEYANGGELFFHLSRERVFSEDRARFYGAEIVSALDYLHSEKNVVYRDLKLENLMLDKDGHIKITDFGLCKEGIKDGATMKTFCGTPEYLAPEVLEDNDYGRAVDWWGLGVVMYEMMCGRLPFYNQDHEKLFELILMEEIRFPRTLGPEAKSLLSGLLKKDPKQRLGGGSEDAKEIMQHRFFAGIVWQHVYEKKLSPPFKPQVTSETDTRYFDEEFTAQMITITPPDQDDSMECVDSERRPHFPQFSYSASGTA

U-251 = assay: cells; type: functional, cell-based; settings: Homo sapiens, U-251, 96 h
Description: Cytotoxicity against human U251 cells after 96 hrs by MTT assay

[17] = biological target: Voltage-gated inwardly rectifying potassium channel KCNH2 (Homo sapiens, UniProt Q12809)
Chain of Voltage-gated inwardly rectifying potassium channel KCNH2 (Q12809 whole entry, canonical isoform): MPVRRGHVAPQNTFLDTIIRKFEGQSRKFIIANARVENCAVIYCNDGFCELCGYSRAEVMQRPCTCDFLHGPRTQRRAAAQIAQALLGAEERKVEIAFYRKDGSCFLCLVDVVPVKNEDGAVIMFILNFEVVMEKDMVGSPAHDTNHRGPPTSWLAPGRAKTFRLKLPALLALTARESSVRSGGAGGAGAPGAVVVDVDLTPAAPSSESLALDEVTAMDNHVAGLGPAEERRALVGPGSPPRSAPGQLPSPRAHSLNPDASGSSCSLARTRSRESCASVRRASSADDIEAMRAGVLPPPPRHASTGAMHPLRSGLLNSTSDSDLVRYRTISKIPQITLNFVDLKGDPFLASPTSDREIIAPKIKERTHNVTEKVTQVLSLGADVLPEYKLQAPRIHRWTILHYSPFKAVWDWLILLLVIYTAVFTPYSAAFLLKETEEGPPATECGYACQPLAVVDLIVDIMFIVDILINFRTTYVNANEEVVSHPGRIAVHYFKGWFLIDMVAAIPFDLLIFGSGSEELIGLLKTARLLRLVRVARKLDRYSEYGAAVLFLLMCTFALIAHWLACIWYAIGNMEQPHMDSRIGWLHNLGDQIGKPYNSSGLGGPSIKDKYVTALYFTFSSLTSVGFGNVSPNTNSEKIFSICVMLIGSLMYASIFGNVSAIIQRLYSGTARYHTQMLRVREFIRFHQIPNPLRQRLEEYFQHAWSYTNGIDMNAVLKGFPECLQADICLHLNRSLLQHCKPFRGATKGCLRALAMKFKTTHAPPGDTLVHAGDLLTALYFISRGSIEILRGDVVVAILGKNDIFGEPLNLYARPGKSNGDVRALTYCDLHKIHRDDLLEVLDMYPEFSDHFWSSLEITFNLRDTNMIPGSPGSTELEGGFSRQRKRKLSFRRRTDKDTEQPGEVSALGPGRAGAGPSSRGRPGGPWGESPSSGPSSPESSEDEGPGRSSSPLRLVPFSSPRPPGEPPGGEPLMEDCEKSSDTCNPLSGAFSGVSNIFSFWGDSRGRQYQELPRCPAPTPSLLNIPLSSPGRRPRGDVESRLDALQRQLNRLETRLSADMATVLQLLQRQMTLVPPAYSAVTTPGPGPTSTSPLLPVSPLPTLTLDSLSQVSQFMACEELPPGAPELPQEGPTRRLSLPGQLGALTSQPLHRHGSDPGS
Description: Inhibition of human ERG expressed in CHO cell membranes by patch clamp method

[18] = biological target: Phosphatidylinositol 4,5-bisphosphate 3-kinase catalytic subunit gamma isoform (Homo sapiens, UniProt P48736); assay: Inhibition of PI3Kgamma (unknown origin) using PIP2 as substrate by ADP-Glo assay
Chain of Phosphatidylinositol 4,5-bisphosphate 3-kinase catalytic subunit gamma isoform (P48736 whole entry, canonical isoform): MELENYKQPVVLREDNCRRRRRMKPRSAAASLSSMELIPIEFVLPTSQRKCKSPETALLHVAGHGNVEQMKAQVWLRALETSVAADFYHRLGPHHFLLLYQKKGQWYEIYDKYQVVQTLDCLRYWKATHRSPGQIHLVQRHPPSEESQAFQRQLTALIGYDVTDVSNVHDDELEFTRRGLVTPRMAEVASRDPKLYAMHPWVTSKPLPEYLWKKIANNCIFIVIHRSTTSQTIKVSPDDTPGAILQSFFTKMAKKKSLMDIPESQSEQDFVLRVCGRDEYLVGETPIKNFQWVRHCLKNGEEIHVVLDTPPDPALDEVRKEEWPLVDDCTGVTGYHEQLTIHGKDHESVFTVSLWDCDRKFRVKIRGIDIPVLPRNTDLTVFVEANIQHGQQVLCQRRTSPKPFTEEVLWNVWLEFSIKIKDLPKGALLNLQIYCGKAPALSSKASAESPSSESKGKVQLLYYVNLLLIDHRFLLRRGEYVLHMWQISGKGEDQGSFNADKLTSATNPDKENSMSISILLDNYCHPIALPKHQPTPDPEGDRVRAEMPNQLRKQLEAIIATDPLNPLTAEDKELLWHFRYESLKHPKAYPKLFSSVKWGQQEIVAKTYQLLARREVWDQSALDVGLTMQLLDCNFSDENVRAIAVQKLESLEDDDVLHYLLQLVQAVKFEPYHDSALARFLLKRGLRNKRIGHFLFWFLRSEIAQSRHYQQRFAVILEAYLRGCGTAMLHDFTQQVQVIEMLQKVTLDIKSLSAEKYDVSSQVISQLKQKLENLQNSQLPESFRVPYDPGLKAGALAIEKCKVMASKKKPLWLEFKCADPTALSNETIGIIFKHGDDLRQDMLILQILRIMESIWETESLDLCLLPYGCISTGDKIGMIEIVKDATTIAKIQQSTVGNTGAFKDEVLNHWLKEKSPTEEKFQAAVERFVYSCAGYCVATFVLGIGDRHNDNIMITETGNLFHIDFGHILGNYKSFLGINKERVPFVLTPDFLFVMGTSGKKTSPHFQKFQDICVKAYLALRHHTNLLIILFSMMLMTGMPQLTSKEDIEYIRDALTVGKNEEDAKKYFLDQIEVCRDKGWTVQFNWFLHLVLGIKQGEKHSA

HGC-27 = assay: cells; type: functional, cell-based; settings: Homo sapiens, HGC-27, 96 h
Description: Cytotoxicity against human HGC27 cells after 96 hrs by MTT assay

in vivo [19] = settings: ICR, mouse, plasma, po, 30 mg/kg; remark: listed apart in the source
[20] = biological target: Phosphatidylinositol 4,5-bisphosphate 3-kinase catalytic subunit alpha isoform (Homo sapiens, UniProt P42336); assay: Inhibition of PI3Kalpha (unknown origin) using PIP2 as substrate by Kinase-Glo assay
PC-3 = assay: cells; type: functional, cell-based; settings: Homo sapiens, PC-3, 96 h
Description: Cytotoxicity against human PC3 cells after 96 hrs by MTT assay

Chain of Phosphatidylinositol 4,5-bisphosphate 3-kinase catalytic subunit beta isoform (P42338 whole entry, canonical isoform): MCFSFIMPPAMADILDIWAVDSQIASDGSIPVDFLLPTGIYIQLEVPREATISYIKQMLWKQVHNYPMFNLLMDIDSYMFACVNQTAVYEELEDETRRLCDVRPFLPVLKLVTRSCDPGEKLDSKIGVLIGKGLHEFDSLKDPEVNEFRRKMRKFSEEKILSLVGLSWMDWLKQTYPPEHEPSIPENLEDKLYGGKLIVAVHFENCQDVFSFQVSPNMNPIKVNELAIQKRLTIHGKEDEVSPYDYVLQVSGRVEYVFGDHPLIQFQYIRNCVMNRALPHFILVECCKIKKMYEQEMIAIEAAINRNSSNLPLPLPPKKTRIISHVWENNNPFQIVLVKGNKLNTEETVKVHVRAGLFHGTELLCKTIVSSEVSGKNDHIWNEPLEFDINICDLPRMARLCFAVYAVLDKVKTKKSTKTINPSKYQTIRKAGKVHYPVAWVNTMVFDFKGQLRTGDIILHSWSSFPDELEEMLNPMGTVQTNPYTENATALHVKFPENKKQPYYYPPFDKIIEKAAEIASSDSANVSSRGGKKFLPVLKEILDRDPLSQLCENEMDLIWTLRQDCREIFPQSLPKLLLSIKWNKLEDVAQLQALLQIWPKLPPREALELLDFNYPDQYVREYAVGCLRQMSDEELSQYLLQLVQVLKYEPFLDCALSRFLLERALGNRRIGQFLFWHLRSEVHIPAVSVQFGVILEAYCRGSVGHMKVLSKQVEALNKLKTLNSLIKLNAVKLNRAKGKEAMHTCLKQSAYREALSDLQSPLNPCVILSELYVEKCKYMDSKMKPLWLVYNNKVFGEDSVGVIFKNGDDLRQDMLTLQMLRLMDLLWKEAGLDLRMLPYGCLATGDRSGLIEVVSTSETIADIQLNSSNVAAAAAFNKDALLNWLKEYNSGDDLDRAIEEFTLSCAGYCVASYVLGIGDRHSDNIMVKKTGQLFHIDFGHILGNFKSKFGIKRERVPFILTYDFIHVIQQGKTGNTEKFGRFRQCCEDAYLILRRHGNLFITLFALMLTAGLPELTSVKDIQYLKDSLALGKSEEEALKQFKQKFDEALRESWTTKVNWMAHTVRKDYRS

Compound: COc1ncc(-c2cc(O[C@@H]3CCOC3)c3nc(N)nc(C)c3c2)cc1NS(=O)(=O)c1ccc(F)cc1F
- half-life (in vivo [1]): 281 min
- IC50 [2]: 0.0004 µM
- IC50 (Cytochrome P450 2C9): > 10 µM
- IC50 [3]: 0.0099 µM
- MTD at 336 h (in vivo [4]): > 50 mg/kg
- AUCt [5]: 28.6 ng·h/g
- Cmax (in vivo [6]): 1.58 µg/mL
- IC50 (A549): 0.084 µM
- IC50 (Cytochrome P450 1A2): > 10 µM
- IC50 (Cytochrome P450 3A4): > 10 µM
- Tmax (in vivo [7]): 4.8 min
- IC50 (Cytochrome P450 2C19): > 10 µM
- IC50 (U-87 MG): 0.26 µM
- IC50 (SH-SY5Y): 0.95 µM
- Vd (in vivo [8]): 2.57 L/kg
- clearance (in vivo [9]): 3.29 L/h/kg
- half-life (in vivo [10]): 32.4 min
- AUC(0-inf) (in vivo [11]): 9.04 µg·h/mL
- IC50 (DU-145): 2.1 µM
- Tmax (in vivo [12]): 1.8 min
- bioavailability (in vivo [13]): 96.2%
- IC50 (Cytochrome P450 2E1): > 10 µM
- Cmax (in vivo [14]): 8.83 µg/mL
- IC50 (T98G): 0.28 µM
- AUC(0-t) (in vivo [15]): 0.904 µg·h/mL
- IC50 (MDA-MB-231): 0.3 µM
- IC50 [16]: > 10 µM
- IC50 (U-251): 0.14 µM
- IC50 [17]: > 10 µM
- IC50 [18]: 0.0012 µM
- IC50 (HGC-27): 0.056 µM
- AUC(0-t) (in vivo [19]): 8.69 µg·h/mL
- IC50 [20]: 0.001 µM
- IC50 (PC-3): 0.28 µM

Compound: CNc1nc(C)c2cc(-c3cnc(OC)c(NS(=O)(=O)c4ccc(F)cc4F)c3)cc(OC3CCOCC3)c2n1
- half-life (in vivo [1]): 255 min
- IC50 [2]: 0.0012 µM
- IC50 (Cytochrome P450 2C9): > 10 µM
- IC50 [3]: 0.043 µM
- MTD at 336 h (in vivo [4]): > 40 mg/kg
- AUCt [5]: 895 ng·h/g
- Cmax (in vivo [6]): 7.72 µg/mL
- IC50 (A549): 0.11 µM
- IC50 (Cytochrome P450 1A2): > 10 µM
- IC50 (Cytochrome P450 3A4): > 10 µM
- Tmax (in vivo [7]): 10.8 min
- IC50 (Cytochrome P450 2C19): > 10 µM
- IC50 (U-87 MG): 0.25 µM
- IC50 (SH-SY5Y): 0.51 µM
- Vd (in vivo [8]): 0.763 L/kg
- clearance (in vivo [9]): 0.858 L/h/kg
- half-life (in vivo [10]): 37.2 min
- AUC(0-inf) (in vivo [11]): 16.1 µg·h/mL
- IC50 (DU-145): 5.2 µM
- Tmax (in vivo [12]): 3 min
- bioavailability (in vivo [13]): 44.4%
- IC50 (Cytochrome P450 2E1): > 10 µM
- Cmax (in vivo [14]): 12.8 µg/mL
- IC50 (T98G): 0.39 µM
- AUC(0-t) (in vivo [15]): 3.48 µg·h/mL
- IC50 (MDA-MB-231): 0.26 µM
- IC50 [16]: > 10 µM
- IC50 (U-251): 0.7 µM
- IC50 [17]: > 10 µM
- IC50 [18]: 0.0017 µM
- IC50 (HGC-27): 0.016 µM
- AUC(0-t) (in vivo [19]): 15.5 µg·h/mL
- IC50 [20]: 0.0014 µM
- IC50 (PC-3): 0.38 µM

Compound: CNc1nc(C)c2cc(-c3cnc(OC)c(NS(=O)(=O)c4ccc(F)cc4F)c3)cc(O[C@@H]3CCOC3)c2n1
- half-life (in vivo [1]): 972 min
- IC50 [2]: 0.0011 µM
- IC50 (Cytochrome P450 2C9): > 10 µM
- IC50 [3]: 0.056 µM
- MTD at 336 h (in vivo [4]): > 40 mg/kg
- AUCt [5]: 742 ng·h/g
- Cmax (in vivo [6]): 2.62 µg/mL
- IC50 (A549): 0.12 µM
- IC50 (Cytochrome P450 1A2): > 10 µM
- IC50 (Cytochrome P450 3A4): > 10 µM
- Tmax (in vivo [7]): 15 min
- IC50 (Cytochrome P450 2C19): > 10 µM
- IC50 (U-87 MG): 0.4 µM
- IC50 (SH-SY5Y): 1.3 µM
- Vd (in vivo [8]): 1.56 L/kg
- clearance (in vivo [9]): 2.07 L/h/kg
- half-life (in vivo [10]): 31.8 min
- AUC(0-inf) (in vivo [11]): 17.1 µg·h/mL
- IC50 (DU-145): 6.5 µM
- Tmax (in vivo [12]): 1.8 min
- bioavailability (in vivo [13]): 78.4%
- IC50 (Cytochrome P450 2E1): > 10 µM
- Cmax (in vivo [14]): 5.39 µg/mL
- IC50 (T98G): 0.41 µM
- AUC(0-t) (in vivo [15]): 1.45 µg·h/mL
- IC50 (MDA-MB-231): 0.48 µM
- IC50 [16]: > 10 µM
- IC50 (U-251): 0.46 µM
- IC50 [17]: > 10 µM
- IC50 [18]: 0.00093 µM
- IC50 (HGC-27): 0.027 µM
- AUC(0-t) (in vivo [19]): 11.4 µg·h/mL
- IC50 [20]: 0.00096 µM
- IC50 (PC-3): 0.24 µM

— ChEMBL document CHEMBL4145625 (J Med Chem, 2018)
